According to US8937078B2, “Quinazolinones as prolyl hydroxylase inhibitors” (Janssen Pharmaceutica NV, priority 2009, dated 2015):
Where a name gives a salt, the structure may show the parent alone.

Legend:
Hep-3B cells = test: Cellular assay: erythropoietin secretion in Hep-3B cells; format: cell-based, human; details: Homo sapiens, Hep3B, 100 μM compound, 24 hours, percent of EPO secretion relative to assay control compound 7-[(4-Chloro-phenyl)-(5-methyl-isoxazol-3-ylamino)-methyl]-quinolin-8-ol, read-out: Cellular % EPO Stimulation
Outline: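 Hep-3B cells in DMEM with 10% FBS, treated 24 h after plating with compounds at 100 μM final for a further 24 h. Secreted EPO in supernatant measured by MSD electrochemiluminescence sandwich immunoassay with anti-EPO detection antibody.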

human PHD2 (PHD2181-417) = target: T1, human PHD2 (PHD2181-417) (Homo sapiens, UniProt Q9GZT9); test: PHD enzymatic assay ([14C]-succinic acid production); format: biochemical; details: PHD2181-417, HIF-1α peptide 10 μM, average of results; read-out: Enzyme pIC50 (converted)
T1 construct: Smt (SUMO) tag (cleaved yes); made in house; host or cells: E. coli BL21 (pBAD vector)
Outline: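 Activity measured as [14C]-succinic acid formed from [5-14C]-2-oxoglutarate over 10 minutes, with peptide substrate at 10 μM, in Tris-HCl pH 7.5 buffer containing catalase, DTT and ascorbate. Unreacted oxoglutarate removed by DNP derivatisation; supernatant beta-counted.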

T1 sequence (Q9GZT9 181-417): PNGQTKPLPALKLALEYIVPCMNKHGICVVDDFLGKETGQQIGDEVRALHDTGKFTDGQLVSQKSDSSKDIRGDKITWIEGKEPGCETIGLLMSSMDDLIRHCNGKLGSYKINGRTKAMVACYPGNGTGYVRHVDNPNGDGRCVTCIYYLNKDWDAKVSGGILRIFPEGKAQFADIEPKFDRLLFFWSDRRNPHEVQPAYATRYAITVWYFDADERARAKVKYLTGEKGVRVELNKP

Compound	Emax at 100 µM (Hep-3B cells)	IC50 (human PHD2 (PHD2181-417))
O=C(O)c1cnn(-c2nc3ccc(N4CCCCC4)cc3c(=O)[nH]2)c1 [Example 124, 1-(4-Oxo-6-piperidin-1-yl-3,4-dihydro-quinazolin-2-yl)-1H-pyrazole-4-carboxylic acid]	71%	39.8 nM
COc1ccc(Oc2ccc3nc(-n4cc(C(=O)O)cn4)[nH]c(=O)c3c2)cc1 [Example 41, 1-[6-(4-Methoxy-phenoxy)-4-oxo-3,4-dihydro-quinazolin-2-yl]-1H-pyrazole-4-carboxylic acid]	112%	20 nM
O=C(O)c1cnn(-c2nc3c(C(F)(F)F)cccc3c(=O)[nH]2)c1 [Example 16, 1-(4-Oxo-8-trifluoromethyl-3,4-dihydro-quinazolin-2-yl)-1H-pyrazole-4-carboxylic acid]	16%	251 nM
O=C(O)c1cnn(-c2nc3ccc(N4CCOCC4)cc3c(=O)[nH]2)c1 [Example 107, 1-(6-morpholin-4-yl-4-oxo-3,4-dihydro-quinazolin-2-yl)-1H-pyrazole-4-carboxylic acid]	45%	39.8 nM
O=C(O)c1cnn(-c2nc3cc(F)c(F)cc3c(=O)[nH]2)c1 [Example 5, 1-(6,7-Difluoro-4-oxo-3,4-dihydro-quinazolin-2-yl)-1H-pyrazole-4-carboxylic acid, trifluoroacetate salt]	21%	20 nM
CS(=O)(=O)c1cccc(-c2ccc3nc(-n4cc(C(=O)O)cn4)[nH]c(=O)c3c2)c1 [Example 206, 1-[6-(3-Methanesulfonyl-phenyl)-4-oxo-3,4-dihydro-quinazolin-2-yl]-1H-pyrazole-4-carboxylic acid]	13%	25.1 nM
O=C(O)c1cnn(-c2nc3cccc(Cl)c3c(=O)[nH]2)c1 [Example 6, 1-(5-Chloro-4-oxo-3,4-dihydro-quinazolin-2-yl)-1H-pyrazole-4-carboxylic acid]	19%	158 nM
Cc1cc2nc(-n3cc(C(=O)O)cn3)[nH]c(=O)c2cc1Oc1ccccc1 [Example 59, 1-(7-Methyl-4-oxo-6-phenoxy-3,4-dihydro-quinazolin-2-yl)-1H-pyrazole-4-carboxylic acid]	80%	25.1 nM
Cc1cc(C)cc(Oc2cc3c(=O)[nH]c(-n4cc(C(=O)O)cn4)nc3cc2F)c1 [Example 94, 1-[6-(3,5-dimethyl-phenoxy)-7-fluoro-4-oxo-3,4-dihydro-quinazolin-2-yl]-1 H-pyrazole-4-carboxylic acid]	90%	20 nM
O=C(O)c1cnn(-c2nc3ccc([N+](=O)[O-])cc3c(=O)[nH]2)c1 [Example 164, 1-(6-Nitro-4-oxo-3,4-dihydro-quinazolin-2-yl)-1H-pyrazole-4-carboxylic acid]	17%	25.1 nM
O=C(O)c1cnn(-c2nc3cc(F)c(Oc4cccc(F)c4)cc3c(=O)[nH]2)c1 [Example 56, 1-[7-Fluoro-6-(3-fluoro-phenoxy)-4-oxo-3,4-dihydro-quinazolin-2-yl]-1H-pyrazole-4-carboxylic acid]	68%	20 nM
COc1cc2nc(-n3cc(C(=O)O)cn3)[nH]c(=O)c2cc1Oc1ccccc1 [Example 62, 1-(7-Methoxy-4-oxo-6-phenoxy-3,4-dihydro-quinazolin-2-yl)-1H-pyrazole-4-carboxylic acid]	7%	39.8 nM
O=C(O)c1cnn(-c2nc3ccc(NS(=O)(=O)c4ccccc4)cc3c(=O)[nH]2)c1 [Example 169, 1-(6-Benzenesulfonylamino-4-oxo-3,4-dihydro-quinazolin-2-yl)-1H-pyrazole-4-carboxylic acid]	34%	25.1 nM
O=C(O)c1cnn(-c2nc3cc(Cl)c(-c4ccccc4)cc3c(=O)[nH]2)c1 [Example 68, 1-(7-Chloro-4-oxo-6-phenyl-3,4-dihydro-quinazolin-2-yl)-1H-pyrazole-4-carboxylic acid]	59%	20 nM
O=C(O)c1cnn(-c2nc3ccc(Oc4cccnc4)cc3c(=O)[nH]2)c1 [Example 65, 1-[4-Oxo-6-(pyridin-3-yloxy)-3,4-dihydro-quinazolin-2-yl]-1H-pyrazole-4-carboxylic acid]	42%	25.1 nM
CS(=O)(=O)c1ccc2nc(-n3cc(C(=O)O)cn3)[nH]c(=O)c2c1 [Example 157, 1-(6-Methanesulfonyl-4-oxo-3,4-dihydro-quinazolin-2-yl)-1H-pyrazole-4-carboxylic acid]	17%	31.6 nM
O=C(O)c1cnn(-c2nc3cc(F)c(Oc4ccc5ccccc5c4)cc3c(=O)[nH]2)c1 [Example 52, 1-[7-Fluoro-6-(naphthalen-2-yloxy)-4-oxo-3,4-dihydro-quinazolin-2-yl]-1H-pyrazole-4-carboxylic acid]	76%	39.8 nM
CC(C)(C)c1ccc2nc(-n3cc(C(=O)O)cn3)[nH]c(=O)c2c1 [Example 19, 1-(6-tert-Butyl-4-oxo-3,4-dihydro-quinazolin-2-yl)-1H-pyrazole-4-carboxylic acid]	45%	39.8 nM
O=C(O)c1cnn(-c2nc3cc(Oc4ccccc4)ccc3c(=O)[nH]2)c1 [Example 66, 1-(4-Oxo-7-phenoxy-3,4-dihydro-quinazolin-2-yl)-1H-pyrazole-4-carboxylic acid]	41%	63.1 nM
CC(=O)Nc1ccc2nc(-n3cc(C(=O)O)cn3)[nH]c(=O)c2c1 [Example 167, 1-(6-Acetylamino-4-oxo-3,4-dihydro-quinazolin-2-yl)-1H-pyrazole-4-carboxylic acid]	26%	31.6 nM
COc1ccccc1-c1ccc2nc(-n3cc(C(=O)O)cn3)[nH]c(=O)c2c1 [Example 198, 1-[6-(2-Methoxy-phenyl)-4-oxo-3,4-dihydro-quinazolin-2-yl]-1H-pyrazole-4-carboxylic acid]	178%	20 nM
N#Cc1cccc(CNc2ccc3nc(-n4cc(C(=O)O)cn4)[nH]c(=O)c3c2)c1 [Example 178, 1-[6-(3-Cyano-benzylamino)-4-oxo-3,4-dihydro-quinazolin-2-yl]-1H-pyrazole-4-carboxylic acid]	12%	20 nM
O=C(O)c1cnn(-c2nc3ccc(NCc4c(F)cccc4F)cc3c(=O)[nH]2)c1 [Example 176, 1-[6-(2,6-Difluoro-benzylamino)-4-oxo-3,4-dihydro-quinazolin-2-yl]-1H-pyrazole-4-carboxylic acid]	26%	39.8 nM
O=C(O)c1cnn(-c2nc3ccc(NCc4ccccc4Cl)cc3c(=O)[nH]2)c1 [Example 174, 1-[6-(2-Chloro-benzylamino)-4-oxo-3,4-dihydro-quinazolin-2-yl]-1H-pyrazole-4-carboxylic acid]	24%	20 nM
CS(=O)(=O)Nc1ccc2nc(-n3cc(C(=O)O)cn3)[nH]c(=O)c2c1 [Example 170, 1-(6-Methanesulfonylamino-4-oxo-3,4-dihydro-quinazolin-2-yl)-1H-pyrazole-4-carboxylic acid]	15%	31.6 nM
O=C(O)c1cnn(-c2nc3c4c(ccc3c(=O)[nH]2)CCC4)c1 [Example 141, 1-(6-Oxo-2,3,6,7-tetrahydro-1H-7,9-diaza-cyclopenta[a]naphthalen-8-yl)-1H-pyrazole-4-carboxylic acid]	25%	501 nM
